Results taken from patent US11078228B2, “Ectonucleotidase inhibitors and methods of use thereof” (Calithera Biosciences, Inc., priority 2018, dated 2021).

Molecular target: recombinant CD73 (Homo sapiens (Human), UniProt P21589)
Test: Assay 2: Inhibition of the CD73 enzyme in vitro (0.05 nM CD73, 1 hour 37° C., Malachite Green)
Assay type: biochemical
Settings: 0.05 nM CD73, 50 μM AMP, 1 hour at 37° C.
Method: For measurements of soluble CD73 enzyme activity, recombinant CD73 was obtained from R&D Systems, Cat. No. 5795-EN-010. […] Reactions were allowed to proceed for 1 hour at 37° C. before the addition of 100 μL Malachite Green (Cell Signaling Technology, Cat. No. 12776). After 5 minutes at room temperature, absorbance at 630 nm was determined on a microplate spectrophotometer. The concentration of inorganic phosphate was determined using a phosphate standard curve.

recombinant CD73, sequence (P21589 27-547): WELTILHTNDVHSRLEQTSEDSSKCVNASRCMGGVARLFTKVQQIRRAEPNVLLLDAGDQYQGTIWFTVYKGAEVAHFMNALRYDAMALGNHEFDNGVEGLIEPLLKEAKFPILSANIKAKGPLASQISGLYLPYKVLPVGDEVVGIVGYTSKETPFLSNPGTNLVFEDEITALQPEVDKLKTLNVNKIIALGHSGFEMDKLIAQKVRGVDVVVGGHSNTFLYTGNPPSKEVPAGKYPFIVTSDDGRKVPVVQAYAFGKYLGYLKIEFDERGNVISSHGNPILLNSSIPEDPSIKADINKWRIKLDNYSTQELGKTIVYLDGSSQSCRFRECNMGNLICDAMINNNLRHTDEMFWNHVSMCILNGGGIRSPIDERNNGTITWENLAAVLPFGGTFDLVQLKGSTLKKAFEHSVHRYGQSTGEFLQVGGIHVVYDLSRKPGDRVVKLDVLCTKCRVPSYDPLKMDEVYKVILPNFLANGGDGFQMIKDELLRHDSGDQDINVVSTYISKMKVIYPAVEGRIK

IC50 [nM] | Compound
0.5 | C#C[C@@]1(O)[C@@H](COC(Cc2ccccc2)(C(=O)O)C(=O)O)O[C@@H](n2cnc3c(N(C)C4CC(O)C4)nc(Cl)nc32)[C@@H]1O (stereo partly drawn) [Example 48, 2-benzyl-2-(((2R,3S,4R,5R)-5-(2-chloro-6-((3-hydroxycyclobutyl)-(methyl)amino)-9H-purin-9-yl)-3-ethynyl-3,4-dihydroxytetrahydrofuran-2-yl)methoxy)malonic acid]
0.3 | C#C[C@@]1(O)[C@@H](COC(Cc2ccc(-c3ccccc3)cc2)(C(=O)O)C(=O)O)O[C@@H](n2cnc3c(N)nc(Cl)nc32)[C@@H]1O [Example 53, 2-([1,1′-biphenyl]-4-ylmethyl)-2-(((2R,3S,4R,5R)-5-(6-amino-2-chloro-9H-purin-9-yl)-3-ethynyl-3,4-dihydroxytetrahydrofuran-2-yl)methoxy)malonic acid]
0.2 | C#C[C@@]1(O)[C@@H](COC(Cc2ccc(-c3ccccc3C(=O)O)cc2)(C(=O)O)C(=O)O)O[C@@H](n2cnc3c(N)nc(Cl)nc32)[C@@H]1O [Example 54, 2-(((2R,3S,4R,5R)-5-(6-amino-2-chloro-9H-purin-9-yl)-3-ethynyl-3,4-dihydroxytetrahydrofuran-2-yl)methoxy)-2-((2′-carboxy-[1,1′-biphenyl]-4-yl)methyl)malonic acid]
> 200 | CC[C@@]1(O)[C@@H](COC(Cc2ccccc2)(C(=O)O)C(=O)O)O[C@@H](n2cnc3c(N)nc(Cl)nc32)[C@@H]1O [Example 56, 2-(((2R,3S,4R,5R)-5-(6-amino-2-chloro-9H-purin-9-yl)-3-ethyl-3,4-dihydroxytetrahydrofuran-2-yl)methoxy)-2-benzylmalonic acid]
103 | C=C[C@@]1(O)[C@@H](COC(Cc2ccccc2)(C(=O)O)C(=O)O)O[C@@H](n2cnc3c(N)nc(Cl)nc32)[C@@H]1O [Example 57, 2-(((2R,3S,4R,5R)-5-(6-amino-2-chloro-9H-purin-9-yl)-3,4-dihydroxy-3-vinyltetrahydrofuran-2-yl)methoxy)-2-benzylmalonic acid]
1.6 | C#C[C@@]1(O)[C@@H](COC(Cc2ccccc2)(C(=O)O)C(=O)O)O[C@@H](n2cnc3ccc(Cl)nc32)[C@@H]1O [Example 58, 2-benzyl-2-(((2R,3S,4R,5R)-5-(5-chloro-3H-imidazo[4,5-b]pyridin-3-yl)-3-ethynyl-3,4-dihydroxytetrahydrofuran-2-yl)methoxy)malonic acid]
2 | C#C[C@@]1(O)[C@@H](COC(Cc2ccccc2)(C(=O)O)C(=O)O)O[C@@H](n2cnc3c(N[C@H](C)c4ccccc4)nc(Cl)nc32)[C@@H]1O [Example 62, 2-benzyl-2-(((2R,3S,4R,5R)-5-(2-chloro-6-(((R)-1-phenylethyl)amino)-9H-purin-9-yl)-3-ethynyl-3,4-dihydroxytetrahydrofuran-2-yl)methoxy)malonic acid]
1 | C#C[C@@]1(O)[C@@H](COC(Cc2ccccc2)(C(=O)O)C(=O)O)O[C@@H](n2cnc3c(N[C@@H](C)c4ccccc4)nc(Cl)nc32)[C@@H]1O [Example 63, 2-benzyl-2-(((2R,3S,4R,5R)-5-(2-chloro-6-(((S)-1-phenylethyl)amino)-9H-purin-9-yl)-3-ethynyl-3,4-dihydroxytetrahydrofuran-2-yl)methoxy)malonic acid]
3 | C#C[C@@]1(O)[C@@H](COC(Cc2ccccc2)(C(=O)O)C(=O)O)O[C@@H](n2cnc3c(NC4CCOC4)nc(Cl)nc32)[C@@H]1O (stereo partly drawn) [Example 64, 2-benzyl-2-(((2R,3S,4R,5R)-5-(2-chloro-6-((tetrahydrofuran-3-yl)-amino)-9H-purin-9-yl)-3-ethynyl-3,4-dihydroxytetrahydrofuran-2-yl)methoxy)-malonic acid]
1 | C#C[C@@]1(O)[C@@H](COC(Cc2ccccc2)(C(=O)O)C(=O)O)O[C@@H](n2cnc3c(N4CC[C@H](O)C4)nc(Cl)nc32)[C@@H]1O [Example 65, 2-benzyl-2-(((2R,3S,4R,5R)-5-(2-chloro-6-((S)-3-hydroxypyrrolidin-1-yl)-9H-purin-9-yl)-3-ethynyl-3,4-dihydroxytetrahydrofuran-2-yl)methoxy)malonic acid]
0.3 | C#C[C@@]1(O)[C@@H](COC(Cc2ccccc2)(C(=O)O)C(=O)O)O[C@@H](n2cnc3c(N(C)CC)nc(Cl)nc32)[C@@H]1O [Example 66, 2-benzyl-2-(((2R,3S,4R,5R)-5-(2-chloro-6-(ethyl(methyl)amino)-9H-purin-9-yl)-3-ethynyl-3,4-dihydroxytetrahydrofuran-2-yl)methoxy)malonic acid]
0.8 | C#C[C@@]1(O)[C@@H](COC(Cc2ccccc2)(C(=O)O)C(=O)O)O[C@@H](n2cnc3c(NCc4ccccc4F)nc(Cl)nc32)[C@@H]1O [Example 67, 2-benzyl-2-(((2R,3S,4R,5R)-5-(2-chloro-6-((2-fluorobenzyl)amino)-9H-purin-9-yl)-3-ethynyl-3,4-dihydroxytetrahydrofuran-2-yl)methoxy)malonic acid]
0.8 | C#C[C@@]1(O)[C@@H](COC(Cc2ccccc2)(C(=O)O)C(=O)O)O[C@@H](n2cnc3c(NCc4ccc(F)cc4)nc(Cl)nc32)[C@@H]1O [Example 68, 2-benzyl-2-(((2R,3S,4R,5R)-5-(2-chloro-6-((4-fluorobenzyl)amino)-9H-purin-9-yl)-3-ethynyl-3,4-dihydroxytetrahydrofuran-2-yl)methoxy)malonic acid]
3 | C#C[C@@]1(O)[C@@H](COC(Cc2ccccc2)(C(=O)O)C(=O)O)O[C@@H](n2cnc3c(N[C@@H]4CCc5ccccc54)nc(Cl)nc32)[C@@H]1O [Example 69, 2-benzyl-2-(((2R,3S,4R,5R)-5-(2-chloro-6-(((R)-2,3-dihydro-1H-inden-1-yl)amino)-9H-purin-9-yl)-3-ethynyl-3,4-dihydroxytetrahydrofuran-2-yl)methoxy)-malonic acid]
1 | C#C[C@@]1(O)[C@@H](COC(Cc2ccccc2)(C(=O)O)C(=O)O)O[C@@H](n2cnc3c(NCCc4ccccc4)nc(Cl)nc32)[C@@H]1O [Example 70, 2-benzyl-2-(((2R,3S,4R,5R)-5-(2-chloro-6-(phenethylamino)-9H-purin-9-yl)-3-ethynyl-3,4-dihydroxytetrahydrofuran-2-yl)methoxy)malonic acid]
6 | C#C[C@@]1(O)[C@@H](COC(Cc2ccccc2)(C(=O)O)C(=O)O)O[C@@H](n2cnc3c(NC)nc(Cl)nc32)[C@@H]1O [Example 71, 2-benzyl-2-(((2R,3S,4R,5R)-5-(2-chloro-6-(methylamino)-9H-purin-9-yl)-3-ethynyl-3,4-dihydroxytetrahydrofuran-2-yl)methoxy)malonic acid]
3 | C#C[C@@]1(O)[C@@H](COC(Cc2ccccc2)(C(=O)O)C(=O)O)O[C@@H](n2cnc3c(N[C@H]4CCc5ccccc54)nc(Cl)nc32)[C@@H]1O [Example 72, 2-benzyl-2-(((2R,3S,4R,5R)-5-(2-chloro-6-(((S)-2,3-dihydro-1H-inden-1-yl)amino)-9H-purin-9-yl)-3-ethynyl-3,4-dihydroxytetrahydrofuran-2-yl)methoxy)-malonic acid]
1 | C#C[C@@]1(O)[C@@H](COC(Cc2ccccc2)(C(=O)O)C(=O)O)O[C@@H](n2cnc3c(NCC)nc(Cl)nc32)[C@@H]1O [Example 73, 2-benzyl-2-(((2R,3S,4R,5R)-5-(2-chloro-6-(ethylamino)-9H-purin-9-yl)-3-ethynyl-3,4-dihydroxytetrahydrofuran-2-yl)methoxy)malonic acid]
2 | C#C[C@@]1(O)[C@@H](COC(Cc2ccccc2)(C(=O)O)C(=O)O)O[C@@H](n2cnc3c(N[C@@H](C)CC)nc(Cl)nc32)[C@@H]1O [Example 74, 2-benzyl-2-(((2R,3S,4R,5R)-5-(6-((S)-sec-butylamino)-2-chloro-9H-purin-9-yl)-3-ethynyl-3,4-dihydroxytetrahydrofuran-2-yl)methoxy)malonic acid]
0.6 | C#C[C@@]1(O)[C@@H](COC(Cc2ccccc2)(C(=O)O)C(=O)O)O[C@@H](n2cnc3c(N(C)CC4CC4)nc(Cl)nc32)[C@@H]1O [Example 75, 2-benzyl-2-(((2R,3S,4R,5R)-5-(2-chloro-6-((cyclopropylmethyl)-(methyl)amino)-9H-purin-9-yl)-3-ethynyl-3,4-dihydroxytetrahydrofuran-2-yl)methoxy)malonic acid]
6 | C#C[C@@]1(O)[C@@H](COC(Cc2ccccc2)(C(=O)O)C(=O)O)O[C@@H](n2cnc3c(NCC(=O)O)nc(Cl)nc32)[C@@H]1O [Example 76, 2-benzyl-2-(((2R,3S,4R,5R)-5-(6-((carboxymethyl)amino)-2-chloro-9H-purin-9-yl)-3-ethynyl-3,4-dihydroxytetrahydrofuran-2-yl)methoxy)malonic acid]
2 | C#C[C@@]1(O)[C@@H](COC(Cc2ccccc2)(C(=O)O)C(=O)O)O[C@@H](n2cnc3c(NCc4ccccc4Cl)nc(Cl)nc32)[C@@H]1O [Example 77, 2-benzyl-2-(((2R,3S,4R,5R)-5-(2-chloro-6-((2-chlorobenzyl)amino)-9H-purin-9-yl)-3-ethynyl-3,4-dihydroxytetrahydrofuran-2-yl)methoxy)malonic acid]
2 | C#C[C@@]1(O)[C@@H](COC(Cc2ccccc2)(C(=O)O)C(=O)O)O[C@@H](n2cnc3c(NCc4ccncc4)nc(Cl)nc32)[C@@H]1O [Example 78, 2-benzyl-2-(((2R,3S,4R,5R)-5-(2-chloro-6-((pyridin-4-ylmethyl)amino)-9H-purin-9-yl)-3-ethynyl-3,4-dihydroxytetrahydrofuran-2-yl)methoxy)malonic acid]
4 | C#C[C@@]1(O)[C@@H](COC(Cc2ccccc2)(C(=O)O)C(=O)O)O[C@@H](n2cnc3c(N4CCOCC4)nc(Cl)nc32)[C@@H]1O [Example 79, 2-benzyl-2-(((2R,3S,4R,5R)-5-(2-chloro-6-morpholino-9H-purin-9-yl)-3-ethynyl-3,4-dihydroxytetrahydrofuran-2-yl)methoxy)malonic acid]
